≈ marks a conversion by molar mass, not a printed value. Like-named read-outs stand apart in the source and are kept apart here.
Legend:
[1] = system: E. coli ATCC 25922; experiment: Intrinsic MIC assay (broth microdilution), E. coli; assay type: cell-based, Escherichia coli; conditions: for MIC: Escherichia coli
Protocol: (§1) MIC assays were conducted in accordance with Clinical and Laboratory Standards Institute (CLSI) guidelines for broth microdilution.
(§2) The intrinsic MIC of the experimental EPIs was tested with the method described. The 2-fold serial dilution begins with 100 μg/mL of tested compound in the first column of the 96-well plates. The following Gram-negative bacterial strains were included in these assays: • Escherichia coli ATCC 25922 • Klebsiella pneumoniae ATCC 13883 and ATCC 10031 • Pseudomonas aeruginosa ATCC 27853. • Pseudomonas aeruginosa PAO1 • Acinetobacter baumannii ATCC 19606

[2] = system: P. Aeruginosa PAO1; experiment: MIC assay in the presence of a bacterial efflux pump inhibitor (EPI), P. aeruginosa PAO1; assay type: cell-based, Pseudomonas aeruginosa; conditions: in the presence of 12.5 μg/ml of N-(((2S,4R)-4-(aminomethyl)pyrrolidin-2-yl)methyl)-6-(4-fluorophenyl)-1H-indole-2-carboxamide
Protocol: The ability of a compound to produce an antibiotic effect can be determined using a method as described in Example 11. Data for representative compounds used in combination with the bacterial efflux pump inhibitor (EPI) N-(((2S,4R)-4-(aminomethyl)pyrrolidin-2-yl)methyl)-6-(4-fluorophenyl)-1H-indole-2-carboxamide is shown in Table 1.
as §1
The EPI assay for the purposes of these studies represents a MIC assay in which the MIC of the antibiotic against the bacteria is tested in the presence of an experimental efflux pump inhibitor (EPI). The highest concentration of the EPI present in the assay typically is ½ of the intrinsic MIC of the compound. […] Using serial dilutions of the EPI, its enhancement of antibiotic activity was then evaluated. The relative EPI activity was decided by comparing the MIC of the antibiotic in the presence of the EPI compound with the intrinsic MIC of the antibiotic alone. For comparative purposes, we generally used EPIs at concentration of 12.5 and 6.25 μg/ml against varying concentration of our test antibiotic.

[3] = system: K. pneumoniae ATCC 10031; experiment: Intrinsic MIC assay (broth microdilution), K. pneumoniae; assay type: cell-based, Klebsiella pneumoniae; conditions: for MIC: Klebsiella pneumoniae
Protocol: as §1, §2

[4] = system: P. Aeruginosa PAO1; experiment: Intrinsic MIC assay (broth microdilution), P. aeruginosa PAO1; assay type: cell-based, Pseudomonas aeruginosa; conditions: for MIC: Pseudomonas aeruginosa, read-out: Intrinsic MIC
Protocol: as §1, §2

[5] = system: A. baumannii ATCC 19606; experiment: Intrinsic MIC assay (broth microdilution), A. baumannii; assay type: cell-based, Acinetobacter baumannii; conditions: for MIC: Acinetobacter baumannii
Protocol: as §1, §2

[6] = P. Aeruginosa PAO1, without EPI
[7] = ATCC25922, E. coli ATCC 25922, read-out: Intrinsic MIC
[8] = ATCC10031, K. pneumoniae ATCC 10031, read-out: Intrinsic MIC
[9] = ATCC19606, A. baumannii ATCC 19606, read-out: Intrinsic MIC
[10] = 18 h, P. Aeruginosa PAO1, without EPI

MIC in the Presence of EPI* [2] | Intrinsic MIC [4, 6] | MIC [1, 7] | MIC [3, 8] | MIC [5, 9] | MIC [4, 10] | Molecule | Intrinsic MIC ([1]; E. coli ATCC 25922) | Intrinsic MIC ([3]; K. pneumoniae ATCC 10031) | Intrinsic MIC ([5]; A. baumannii ATCC 19606) | MIC ([1]; ATCC25922, read-out: Intrinsic MIC) | MIC ([3]; ATCC10031, read-out: Intrinsic MIC) | MIC ([4]; PAO1, 18 h) | MIC ([5]; ATCC19606, read-out: Intrinsic MIC)
8 µg/mL | 128 µg/mL | 128 µg/mL (≈ 535 µM) | 64 µg/mL (≈ 268 µM) | 128 µg/mL (≈ 535 µM) |  | CC(N)c1cc2cc(Br)ccc2[nH]1 (stereo not shown) [Example 1, 1-(5-Bromo-1H-indol-2-yl)ethan-1-amine] |  |  |  |  |  |  | 
64 µg/mL |  | 256 µg/mL (≈ 1010 µM) | 128 µg/mL (≈ 506 µM) | 64 µg/mL (≈ 253 µM) | > 256 µg/mL | CNC(C)c1cc2cc(Br)ccc2[nH]1 (stereo not shown) [Example 3, 1-(5-Bromo-1H-indol-2-yl)-N-methylethan-1-amine] |  |  |  |  |  |  | 
128 µg/mL |  | > 256 µg/mL | > 256 µg/mL | > 256 µg/mL | > 256 µg/mL | CC(N)c1cc2ccccc2[nH]1 (stereo not shown) [Example 4, 1-(1H-Indol-2-yl)ethan-1-amine] |  |  |  |  |  |  | 
16 µg/mL | 256 µg/mL | > 256 µg/mL | > 256 µg/mL | > 256 µg/mL |  | CC(N)c1cc2cc(F)ccc2[nH]1 (stereo not shown) [Example 7, 1-(5-Fluoro-1H-indol-2-yl)ethan-1-amine] |  |  |  |  |  |  | 
256 µg/mL |  | > 256 µg/mL | > 256 µg/mL | 256 µg/mL (≈ 1350 µM) | > 256 µg/mL | COc1ccc2[nH]c(C(C)N)cc2c1 (stereo not shown) [Example 8, 1-(5-Methoxy-1H-indol-2-yl)ethan-1-amine] |  |  |  |  |  |  | 
16 µg/mL |  | 128 µg/mL (≈ 561 µM) | 64 µg/mL (≈ 280 µM) | 64 µg/mL (≈ 280 µM) | > 256 µg/mL | CC(N)c1cc2cc(C(F)(F)F)ccc2[nH]1 (stereo not shown) [Example 9, 1-(5-(Trifluoromethyl)-1H-indol-2-yl)ethan-1-amine] |  |  |  |  |  |  | 
32 µg/mL |  | 256 µg/mL (≈ 1070 µM) | 128 µg/mL (≈ 535 µM) | 128 µg/mL (≈ 535 µM) | > 256 µg/mL | CC(N)c1cc2ccc(Br)cc2[nH]1 (stereo not shown) [Example 10, 1-(6-Bromo-1H-indol-2-yl)ethan-1-amine] |  |  |  |  |  |  | 
16 µg/mL |  | 256 µg/mL (≈ 1140 µM) | 256 µg/mL (≈ 1140 µM) | 128 µg/mL (≈ 569 µM) | 64 µg/mL (≈ 284 µM) | NCc1cc2ccc(Br)cc2[nH]1 [Example 13, (6-Bromo-1H-indol-2-yl)methanamine] |  |  |  |  |  |  | 

More lines, now with the values behind:

Molecule | MIC in the Presence of EPI* [2] | Intrinsic MIC [4, 6] | MIC [1, 7] | MIC [3, 8] | MIC [5, 9] | MIC [4, 10] | Intrinsic MIC ([1]; E. coli ATCC 25922) | Intrinsic MIC ([3]; K. pneumoniae ATCC 10031) | Intrinsic MIC ([5]; A. baumannii ATCC 19606) | MIC ([1]; ATCC25922, read-out: Intrinsic MIC) | MIC ([3]; ATCC10031, read-out: Intrinsic MIC) | MIC ([4]; PAO1, 18 h) | MIC ([5]; ATCC19606, read-out: Intrinsic MIC)
1-(5-Bromo-1H-indol-2-yl)ethane-1,2-diamine [Example 6] | 128 µg/mL | 256 µg/mL |  |  |  |  | 128 µg/mL | 64 µg/mL | 128 µg/mL |  |  |  | 
CCCCC(N)c1cc2cc(Br)ccc2[nH]1 (stereo not shown) [Example 2, 1-(5-Bromo-1H-indol-2-yl)pentan-1-aminium chloride] | 64 µg/mL |  |  |  |  |  |  |  |  | 16 µg/mL | 16 µg/mL | > 256 µg/mL | 32 µg/mL
CC(N)c1cc2cc(Br)ccc2n1C (stereo not shown) [Example 5, 1-(5-Bromo-1-methyl-1H-indol-2-yl)ethan-1-amine] | 64 µg/mL |  | 128 µg/mL (≈ 506 µM) | 64 µg/mL (≈ 253 µM) | 128 µg/mL (≈ 506 µM) | > 256 µg/mL |  |  |  |  |  |  | 
CC(N)c1cc2cc(OC(F)(F)F)ccc2[nH]1 (stereo not shown) [Example 11, 1-(5-(Trifluoromethoxy)-1H-indol-2-yl)ethan-1-amine] | 64 µg/mL |  | 128 µg/mL (≈ 524 µM) | 64 µg/mL (≈ 262 µM) | 64 µg/mL (≈ 262 µM) | > 256 µg/mL |  |  |  |  |  |  | 
CC(c1cc2ccccc2[nH]1)N(C)C (stereo not shown) [Example 12, 1-(1H-Indol-2-yl)-N,N-dimethylethan-1-amine] | 256 µg/mL |  | > 256 µg/mL | > 256 µg/mL | > 256 µg/mL | > 256 µg/mL |  |  |  |  |  |  | 
NCc1cc2cc(Br)ccc2[nH]1 [Example 14, (5-Bromo-1H-indol-2-yl)methanamine] | 8 µg/mL |  | 128 µg/mL (≈ 569 µM) | 64 µg/mL (≈ 284 µM) | 64 µg/mL (≈ 284 µM) | 128 µg/mL (≈ 569 µM) |  |  |  |  |  |  | 

From US11845742B2, “Therapeutic compounds and methods to treat infection” (priority 2017, dated 2023)
